We go through 32 compounds from ChEMBL document CHEMBL1201862, “PubChem BioAssay data set” (2004).

SMILES strings stand for the structures. The source made the active and inactive calls.

The target in assay [1] is T1, Rac GTPase-activating protein 1 (Homo sapiens, UniProt Q9H0H5).
T1 sequence (Q9H0H5 whole entry): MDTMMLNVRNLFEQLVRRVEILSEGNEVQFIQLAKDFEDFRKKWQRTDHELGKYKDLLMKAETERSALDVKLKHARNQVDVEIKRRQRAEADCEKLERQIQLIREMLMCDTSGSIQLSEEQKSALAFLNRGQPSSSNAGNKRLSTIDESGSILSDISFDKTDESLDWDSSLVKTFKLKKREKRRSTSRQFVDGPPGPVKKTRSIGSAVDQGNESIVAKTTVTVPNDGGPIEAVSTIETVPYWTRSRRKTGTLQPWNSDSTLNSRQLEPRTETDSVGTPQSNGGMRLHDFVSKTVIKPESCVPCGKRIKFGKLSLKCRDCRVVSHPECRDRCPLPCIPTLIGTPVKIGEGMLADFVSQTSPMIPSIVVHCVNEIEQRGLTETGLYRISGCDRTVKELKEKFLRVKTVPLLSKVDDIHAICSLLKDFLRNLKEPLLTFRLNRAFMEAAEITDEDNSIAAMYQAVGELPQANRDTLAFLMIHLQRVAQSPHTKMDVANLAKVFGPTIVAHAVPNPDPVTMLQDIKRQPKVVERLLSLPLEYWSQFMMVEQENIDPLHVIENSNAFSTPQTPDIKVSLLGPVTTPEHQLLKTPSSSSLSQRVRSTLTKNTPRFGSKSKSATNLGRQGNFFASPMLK
Kind of assay: blockers of MgcRacGAP-driven Rac1 GTP hydrolysis – biochemical, ADP Hunter fluorescence, primary and confirmatory, confirmation (AID 624330). It is filed as functional.

Assay [2] concerns the target T2, Corticotropin-releasing factor receptor 2/Corticotropin-releasing factor-binding protein (Homo sapiens, UniProt P24387+Q13324).
T2 sequence (Q13324 whole entry): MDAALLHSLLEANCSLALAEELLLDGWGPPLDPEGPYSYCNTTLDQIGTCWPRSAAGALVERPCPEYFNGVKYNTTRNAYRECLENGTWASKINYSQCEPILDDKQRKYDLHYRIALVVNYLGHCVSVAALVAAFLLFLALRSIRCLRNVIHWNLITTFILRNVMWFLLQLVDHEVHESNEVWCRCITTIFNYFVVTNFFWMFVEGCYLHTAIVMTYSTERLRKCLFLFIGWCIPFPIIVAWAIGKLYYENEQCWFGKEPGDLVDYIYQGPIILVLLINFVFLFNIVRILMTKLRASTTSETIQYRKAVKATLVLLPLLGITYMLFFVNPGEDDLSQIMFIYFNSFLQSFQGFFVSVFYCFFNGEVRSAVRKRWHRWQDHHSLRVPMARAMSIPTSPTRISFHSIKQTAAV
T2 sequence (P24387 whole entry): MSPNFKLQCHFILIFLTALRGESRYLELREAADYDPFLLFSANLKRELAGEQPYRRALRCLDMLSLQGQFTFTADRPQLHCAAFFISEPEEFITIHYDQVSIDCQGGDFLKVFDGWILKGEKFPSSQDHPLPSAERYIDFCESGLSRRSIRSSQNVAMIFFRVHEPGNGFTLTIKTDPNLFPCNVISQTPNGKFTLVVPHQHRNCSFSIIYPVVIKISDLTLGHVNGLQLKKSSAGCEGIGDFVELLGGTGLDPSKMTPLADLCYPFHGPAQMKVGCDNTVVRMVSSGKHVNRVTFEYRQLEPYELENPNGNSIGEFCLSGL
The assay is described as follows: activators of CRF receptor 2 with binding protein – uHTS hits, confirmation (AID 602473). It is filed as functional. The settings on record: read-out: EC50_Mean.

The target of assay [3] is T2, Corticotropin-releasing factor receptor 2/Corticotropin-releasing factor-binding protein. The assay is described as follows: Dose Response confirmation of uHTS hits for small molecule antagonists of the CRF-binding protein and CRF-R2 receptor complex. The format is functional. The settings on record: read-out: IC50_Mean.
A further assay has as its target T3, Streptokinase A (Streptococcus pyogenes serotype M1, UniProt P10520).
T3 sequence (P10520 whole entry): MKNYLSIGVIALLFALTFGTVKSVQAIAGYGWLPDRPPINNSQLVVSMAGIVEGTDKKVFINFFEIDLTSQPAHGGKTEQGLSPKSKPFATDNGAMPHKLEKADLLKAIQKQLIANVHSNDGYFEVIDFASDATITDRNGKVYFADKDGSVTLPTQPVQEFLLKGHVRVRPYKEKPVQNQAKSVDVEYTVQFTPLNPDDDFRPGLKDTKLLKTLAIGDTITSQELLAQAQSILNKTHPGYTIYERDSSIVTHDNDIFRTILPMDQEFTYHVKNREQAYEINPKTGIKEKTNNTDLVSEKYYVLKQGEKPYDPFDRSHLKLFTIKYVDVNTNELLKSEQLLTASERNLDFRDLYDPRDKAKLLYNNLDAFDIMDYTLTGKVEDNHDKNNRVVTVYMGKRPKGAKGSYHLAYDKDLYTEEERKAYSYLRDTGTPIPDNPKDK
The assay is described as follows: viability-normalized secreted streptokinase activity reduction – plasminogen activation absorbance, OD405, dose response (AID 1914).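 Note: secreted streptokinase activity via plasminogen activation per viability signal from cell pellet.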 The format is functional, Streptococcus pyogenes M1 GAS.

Assay [4] has as its system Streptococcus sp. 'group A'. Kind of assay: Streptococcus pyogenes SK(-)GAS viability under kanamycin – luminescence, BacTiterGlo, confirmation, counter-screen for streptokinase expression inhibitor project, dose response (AID 1900). It is filed as functional, organism-based. For orientation: The purpose of a counterscreen is to sort out artefacts and off-target activity.

The test system of the next assay is Streptococcus. Kind of assay: GAS UMAA2166 growth inhibition – luminescence, BacTiterGlo, counter-screen for streptokinase expression inhibitor project, dose response (AID 1915).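 Note: potency for reduction of bacterial viability or growth.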 The format is functional, organism-based.
A further assay in a line: cells. The format is functional.
A short description of assay [5]: P. falciparum Dd2 growth inhibitors, dose response, SYBR Green, cherry-picked samples (AID 1159567). It is filed as functional, cell-based.
A short description of assay [6]: NIH-3T3 fibroblast cytotoxicity, dose response, cytotoxicity control, cell-based, fluorescence, Alamar Blue, secondary assay (AID 2327).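 Note: NIH-3T3 mouse fibroblasts cultured with fluconazole at 8 µg/mL.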 The format is functional. In general terms: Alamar Blue is a resazurin reagent that responds to reducing activity.

For `CN(C)c1ccc(NC(=O)CN2C(=O)c3ccccc3C2=O)cc1`, the IC50 in [1] is 73.7 µM (active).

For `COc1cc2c(cc1OC)C(/C=C(\O)c1ccc(OC)c([N+](=O)[O-])c1)=NCC2`, in assay [2], the EC50 is > 53 µM (inactive). In addition, the IC50 in assay [3] is > 47.1 µM (inactive).

In the case of `CCOC(=O)N/N=C/c1ccc(N(CC)CC)cc1O`, the IC50 in [1] is 78.5 µM (active).

Regarding `COc1ccc(CNCC(=O)Nc2cc(OC)cc(OC)c2)cc1`, the IC50 in [1] is 123 µM (active).

With `COc1ccc(NC(=O)C(=O)NNC(=O)C(C)Oc2ccc(Cl)cc2Cl)cc1` (centres undefined), the EC50 on Streptokinase A is > 150 µM (not active); in assay [4], 4.84 µM (active); in the assay with Streptococcus, 18.5 µM (active). Moreover, the IC50 in “cells” is 6.02 µM (active).

In the case of `CN(CC(=O)Nc1ccc2c(c1)OCCO2)CC(=O)Nc1ccc(F)c(F)c1F`, the EC50 in [2] was > 53 µM (inactive). Moreover, the IC50 in assay [3] is > 47.1 µM (inactive).

In the case of `COc1ccc(-c2nc3c(c(=O)c4ccccc4n3C)c(=O)n2Cc2ccccc2)cc1`, the EC50 in [2] is > 53 µM (inactive).

On to `O=C(Nc1ccn(Cc2ccccc2)n1)c1ccc(F)cc1`, for which the IC50 in “cells” is > 50 µM (active).

With `CCOC(=O)c1sc(NC(=O)CN(CC(C)C)CC(C)C)c(C(=O)OCC)c1C`, in assay [2], the EC50 is > 53 µM (inactive). In [3], the IC50 was > 47.1 µM (inactive).

For the compound `Cc1ccc(NCCC(=O)c2cccs2)cc1`, the IC50 in “cells” was 10.5 µM (active).

As for `CC(C)CSc1nnc2[nH]c(=O)cc(N)n12`, the EC50 in assay [2] is > 53 µM (inactive). In addition, the IC50 in assay [3] was > 47.1 µM (inactive).

`COC(=O)c1ccc(N2CCN(CCNC(=O)Nc3ccc(OC)cc3)CC2)cc1`: the IC50 in “cells” was 22.5 µM (active).

One may read the AC50 as the concentration giving half of the maximal activity seen. As to `COc1ccc(C#Cc2ccc([C@H]3[C@H]4CN(C(=O)c5ccc(F)cc5)CC(=O)N4[C@H]3CO)cc2)cc1`, the AC50 in assay [5] was 6.95 µM (active).

As for `C[C@H](CO)N1C[C@H](C)[C@@H](CN(C)C(=O)Nc2cccc3ccccc23)Oc2ccc(NC(=O)Nc3cccc4ccccc34)cc2CC1=O`, the AC50 in assay [5] was 5.57 µM (active).

In the case of `CSc1ccc(/C=C(/NC(=O)c2ccc(C)cc2)C(=O)Nc2cccc(F)c2)cc1`, the EC50 in assay [2] is > 53 µM (inactive). In addition, the IC50 in [3] was > 47.1 µM (inactive).

`Cc1ccccc1OCCN1CCCC1`: in assay [1], the IC50 was 176 µM (active).

As for `N#C/C(=C\c1ccc(N2CCOCC2)o1)c1ccccc1`, the IC50 in assay [1] is 47.1 µM (active).

With `C[C@H](CO)N1C[C@H](C)[C@H](CN(C)CC2CC2)Oc2cc(-c3cccc(C#N)c3)ccc2S1(=O)=O`, the AC50 in [5] was 3.61 µM (active).

For the compound `Cc1ccc(NC(=O)COCC(=O)Nc2ccc(C)cc2)cc1`, the IC50 in “cells” was 22.8 µM (active).

As for `CSc1ccc(CCNC(=O)c2ccc(C[S+]([O-])Cc3ccc(Cl)cc3)o2)cc1` (centres undefined), the EC50 in assay [2] is > 53 µM (inactive). Also, the IC50 in assay [3] was > 47.1 µM (inactive).

`CCOC(=O)Cn1c(=O)oc2cc(S(=O)(=O)NC(C)(C)CC)ccc21`: the EC50 in assay [2] is > 53 µM (inactive). In addition, the IC50 in assay [3] was > 47.1 µM (inactive).

For `COc1ccc(NC(=O)N(C)C[C@H]2Oc3cc(-c4ccc(C)cc4)ccc3S(=O)(=O)N([C@H](C)CO)C[C@@H]2C)cc1`, the AC50 in assay [5] is 4.83 µM (active).

In the case of `CCOc1cc(/C=C2\SC(N3CCCC(C)C3)=NC2=O)ccc1O` (centres undefined), the IC50 in [1] was 26.9 µM (active).

`O=C(OCC(=O)N1CCCc2ccccc21)c1ccc(S(=O)(=O)C(F)F)cc1`: the IC50 in “cells” was 23.3 µM (active).

Turning to `CCCC#Cc1ccc2c(c1)O[C@H](CN(C)C(=O)c1ccccc1F)[C@@H](C)CN([C@H](C)CO)S2(=O)=O`, the AC50 in assay [5] was 4.94 µM (active).

Regarding `CC(=O)N1CCOc2cc(S(=O)(=O)N3CCN(c4ccccc4)CC3)c(Cl)cc21`, the EC50 in assay [2] is > 53 µM (inactive). For the same compound, the IC50 in assay [3] was > 47.1 µM (inactive).

In the case of `COc1ccc(-c2ccc(/C=N/NC(=O)Cc3nnc(N)s3)o2)cc1Cl`, the EC50 in [2] was > 53 µM (inactive). Also, in assay [3], the IC50 was > 47.1 µM (inactive).

Regarding `COc1ccc(C2=CC(c3ccco3)n3ncnc3N2)cc1` (centres undefined), in [2], the EC50 is 4.53 µM (active).

With `COc1cc(OC)c(OC)cc1CN1CCN(Cc2ccc(SC)cc2)CC1`, the IC50 in assay [1] is 66.9 µM (active).

For the compound `Cc1ccc(C(C)C)c(OCC(=O)OCc2c(C)noc2C)c1`, in the assay “cells”, the IC50 was 5.76 µM (active).

As to `CCc1cc(/C(Cc2ccccn2)=N\O)c(O)cc1O`, the IC50 in [1] was 31.6 µM (active).

Take `Cn1c(SCC(=O)N2CCCc3ccccc32)nnc1-c1ccccc1`: the EC50 in assay [6] was > 160 µM (inactive).
